Assay results as given in ChEMBL document CHEMBL4325927, “Synthesis, Anti-HBV, and Anti-HIV Activities of 3'-Halogenated Bis(hydroxymethyl)-cyclopentenyladenines” (ACS Med Chem Lett, 2018).

What was measured:
[1] = Cytotoxicity against human HepG2.2.15 cells after 7 days by MTT assay; assay type: cell-based, HepG2 2.2.15
HBV genotype D = assay: Antiviral activity against HBV genotype D infected in human HepG2.2.15 cells assessed as reduction in viral DNA level after 7 days by RT-PCR assay; assay type: functional, organism-based; details: Hepatitis B virus, HepG2.2.15, 168 h
[2] = Cytotoxicity against human MT2 cells after 7 days by MTT assay; assay type: cell-based
[3] = test system: Human immunodeficiency virus 1; assay: Antiviral activity against HIV-1 3B infected in human MT2 cells assessed as inhibition of virus-induced cytopathic effect after 7 days by MTT assay; assay type: functional, organism-based; details: Human immunodeficiency virus 1, 3B, MT2, 168 h
[4] = Selectivity index, ratio of CC50 for cytotoxicity against human HepG2.2.15 cells to EC50 for HBV genotype D infected in human HepG2.2.15 cells; assay type: toxicity, cell-based; details: read-out: Ratio CC50/EC50

In the case of `Nc1ncnc2c1ncn2[C@H]1C=C(Br)[C@H](CO)[C@H]1CO`, the CC50 at 168 h [1] is reported as > 100 µM, the EC50 (HBV genotype D) is reported as 0.029 µM and the CC50 at 168 h [2] is reported as > 100 µM. For the same molecule, the EC50 [3] was > 100 µM.

For `Nc1ncnc2c1ncn2[C@@H]1C=C[C@H](CO)[C@H]1CO`, the CC50 at 168 h [1] was > 100 µM, the EC50 (HBV genotype D) was 0.0457 µM and the CC50 at 168 h [2] was 153 µM. It also gave an EC50 [3] of 0.77 µM.

In the case of `Nc1ncnc2c1ncn2[C@H]1C=C(Cl)[C@H](CO)[C@H]1CO`, the EC50 (HBV genotype D) is reported as 0.146 µM, the CC50 at 168 h [2] is reported as > 100 µM and the EC50 [3] is reported as > 100 µM.

With `Nc1ncnc2c1ncn2[C@H]1C=C(F)[C@H](CO)[C@H]1CO` the CC50 at 168 h [1] was > 100 µM, the EC50 (HBV genotype D) was 0.019 µM and the CC50 at 168 h [2] was > 100 µM. For the same molecule, the selectivity ratio [4] was 5260 and the EC50 [3] was > 100 µM.

For `Nc1ncnc2c1ncn2[C@H]1C=C(I)[C@H](CO)[C@H]1CO`, the EC50 (HBV genotype D) was 0.436 µM, the CC50 at 168 h [2] was > 100 µM and the EC50 [3] was > 100 µM.

Molecule `C=C1[C@H](CO)[C@@H](O)C[C@@H]1n1cnc2c(=O)[nH]c(N)nc21` [ENTECAVIR] has a CC50 at 168 h [1] of 52.9 µM and an EC50 (HBV genotype D) of 0.0038 µM.
